According to paper PMC8347512, “Synthesis and Biological Assessment of 4,1-Benzothiazepines with Neuroprotective Activity on the Ca^2+ Overload for the Treatment of Neurodegenerative Diseases and Stroke” (Molecules, 2021):
Where two headings read alike, the source gives them in different places.

Assays:
NMDA receptors = assay: Blockade of NMDA-evoked cytosolic Ca2+ elevation (Fluo-4/AM) in rat cortical neurons; type: cell-based
Method: (§1) The neuroblastoma SH-SY5Y cell line was obtained from the American Type Culture Collection (ATCC-CRL-2266), maintained and cultured in a 1:1 mixture of MEM and F12 media with 10% of fetal bovine serum (FBS), according to procedures previously described. For fluorescence-based [Ca^2+]c measurements, SH-SY5Y cells were seeded in clear-bottomed, 96-well black plates at a density of 40,000 cells/well. For viability assays, SH-SY5Y cells were seeded in 48-well plates at a density of 70,000 cells/well following the procedure recently reported. Rat cortical embryonic neurons were prepared from 19-day-old embryos directly seeded in the plate well treated with poly-D-lysine in neurobasal medium (Gibco 21103, Madrid, Spain) supplemented with 1% of L-glutamine (Sigma, G6392), 0.5% of penicillin/streptomycin and 0.1% of gentamincine. In fluorescence-based [Ca^2+]c measurement, neurons were seed at clear-bottomed, 96-well black plates at a density of 30,000 cells/well. For viability assays, the rat cortical neurons were also seeded in 48-well plates at a density of 40,000 cells/well. All the biological assays were conducted under sterile conditions.
To assess the blocking effect of compounds on the VGCC, we used SH-SY5Y cells charged with the Ca^2+-sensitive fluorescent dye Fluo-4/AM at 10 μM in Krebs-HEPES buffer, following a protocol recently described. Compounds were incubated at the desired concentrations (1, 3, 10, and 30 μM). The Ca^2+ entry was favored by addition of K^+ 70 mM to the extracellular medium. […] Rat cortical neurons were charged with Fluo-4/AM at 3 μM in Krebs-HEPES buffer and compounds incubated at same concentrations than before. To stimulate Ca^2+ entry through the NMDA-sensitive glutamate receptors, NMDA was applied at 10 μM. In both cases, fluorescence oscillations as result of the [Ca^2+]c increases were real-time monitored in a multi-well fluorescence plate reader (FluoStar Optima, BMG, Germany), with excitation and emission wavelengths of 485 and 520 nm, respectively. Data were calculated as fluorescence increase (ΔF), according to the formula: ΔF=Fx−Fo /Fmax−Fmin where Fx is the maximum fluorescence obtained after Ca^2+ entry stimulation, F0 is the averaged fluorescence before, Fmax is the maximum fluorescence of the well obtained by treating cells with 5% Triton X-100, and the Fmin is the minimum fluorescence of well obtained by adding MnCl2 1 M to the previously Triton-lysed cells. The ΔF data were normalized respect to the control (ΔFc).

VGCC = assay: Blockade of 70 mM K+-evoked cytosolic Ca2+ elevation (Fluo-4/AM) in SH-SY5Y cells; type: cell-based; details: for Decrease of K+-evoked Ca2+ signaling compared with nifedipine: compounds 10 μM, nifedipine 10 μM
Method: as §1
To assess the blocking effect of compounds on the VGCC, we used SH-SY5Y cells charged with the Ca^2+-sensitive fluorescent dye Fluo-4/AM at 10 μM in Krebs-HEPES buffer, following a protocol recently described. Compounds were incubated at the desired concentrations (1, 3, 10, and 30 μM). The Ca^2+ entry was favored by addition of K^+ 70 mM to the extracellular medium. To evaluate the blocking effect of compounds on NMDA receptors, we have followed a protocol recently reported by our research group. Rat cortical neurons were charged with Fluo-4/AM at 3 μM in Krebs-HEPES buffer and compounds incubated at same concentrations than before. To stimulate Ca^2+ entry through the NMDA-sensitive glutamate receptors, NMDA was applied at 10 μM. In both cases, fluorescence oscillations as result of the [Ca^2+]c increases were real-time monitored in a multi-well fluorescence plate reader (FluoStar Optima, BMG, Germany), with excitation and emission wavelengths of 485 and 520 nm, respectively. Data were calculated as fluorescence increase (ΔF), according to the formula: ΔF=Fx−Fo /Fmax−Fmin where Fx is the maximum fluorescence obtained after Ca^2+ entry stimulation, F0 is the averaged fluorescence before, Fmax is the maximum fluorescence of the well obtained by treating cells with 5% Triton X-100, and the Fmin is the minimum fluorescence of well obtained by adding MnCl2 1 M to the previously Triton-lysed cells. The ΔF data were normalized respect to the control (ΔFc). Data are presented as percentage of blockade (100% ΔF) at the concentration of 10 μM, or as IC50, i.e., the concentration of compound capable of halving the ΔFc (%ΔF = 50).

[1] = Blood-brain barrier permeation assay (PAMPA), porcine brain lipid; type: in vitro ADME; details: read-out: Pe, in vitro permeability (PAMPA-BBB)
Method: The parallel artificial membrane permeation assay (PAMPA) was used to predict the capacity of compounds to cross the blood–brain barrier (BBB) by passive diffusion, in a similar manner as previously described. Compounds were dissolved in 10 mM phosphate-buffered saline (PBS) buffer (pH 7.4) to the concentration of 100 µM. The filter membrane of the donor 96-well plate (Multiscreen IP sterile clear plate PDVF membrane, pore size […]) was impregnated with 4 µL of porcine brain lipid (PBL) (Avanti Polar Lipids, Inc., Alabaster, AL, USA) in dodecane (20 mg/mL), and after 5 min, 180 µL of each compound solution was added. The acceptor 96-well plate (Multiscreen, Millipore Corp. Burlington, MA, USA) was filled with 180 µL of PBS and 1% of DMSO. Finally, the donor filter plate was carefully put on the acceptor plate to form a “sandwich”, which was left undisturbed for 4 h at rt. After incubation, an UV plate reader determined the concentration of compounds in both acceptor and donor wells (150 µL/well) as the maximum absorption wavelength of each compound. Concentration of the compounds in the donor and acceptor well, and equilibrium concentration were calculated from the standard curve and expressed as the permeability (Pe), according to the following formula: logPe=logC×−ln1−drugacceptor/drugequilibrium whereC=Vdonor×Vaceptor/Vdonor+Vaceptor×Area×Time)
Results are expressed as mean ± SEM of three different experiments in duplicate.

rat cortical neurons [2] = assay: Per se toxicity, MTT reduction, rat cortical neurons; type: cell-based; details: 48 h
Method: as §1
The per se toxicity of the new synthetized compounds was assessed in both cell cultures by the method of MTT reduction. After 24 h of seeding, SH-SY5Y cells were preincubated with compounds at different concentrations (1, 3, 10, and 30 μM) for 24 h. Afterwards, MEM/F12 medium was replaced by one fresh with 1% FBS with the compounds at the same concentration. The viability of cultures was measured 20 h later, following a procedure recently described. In the case of rat cortical neurons, 7 days after seeding, compounds were added to the wells to reach a final concentration of 1, 3, 10, and 30 μM. Forty-eight hours later, neuron viability was measure by the same procedure as the one described for SH-SY5Y cells.

SH-SY5Y cells = assay: Neuroprotection against rotenone/oligomycin A (R/O), MTT, SH-SY5Y cells; type: cell-based; details: R/O 30/10 μM, compounds 10 μM
Method: as §1
(§2) The effect of compounds on the SH-SY5Y cells and rat cortical neurons viability compromised of different toxics was also evaluated by method of MTT reduction. Twenty-four hours after seeding, SH-SY5Y cells were preincubated with compounds at the concentration of 10 μM for 24 h. Afterwards, MEM/F12 medium was replaced by one fresh with 1% FBS, compounds at the same concentration, and rotenone/oligomycin A administered to media at the concentration of 30/10 μM, respectively. The cultures’ viability was measured 20 h later, following the MTT procedure recently described. As reference neuroprotective compound, melatonin 10 nM was selected. In the case of the rat cortical neurons, 7 days after seeding in 48-well plates, neurons were preincubated adding the compounds at a final concentration of 10 μM for 24 h. Then, toxic stimuli of 50 µM of glutamate was added to the wells. After 20 h, cell viability was measured by the MTT procedure. Here, the reference protective compound used was memantine (30 nM).

rat cortical neurons [3] = assay: Neuroprotection against glutamate 50 μM, MTT, rat cortical neurons; type: cell-based; details: compounds 10 μM
Method: as §1, §2

[4] = compounds 1 to 30 μM, Fluo-4/AM, read-out: IC50, concentration halving the 70 mM K+-evoked Ca2+ elevation
[5] = rat cortical embryonic neurons, NMDA 10 μM, compounds 1 to 30 μM; read-out: IC50, NMDA-evoked [Ca2+]c elevation
[6] = porcine brain lipid, pH 7.4, 4 h, rt, Pe ≥ 4 indicates passive BBB crossing

Structure (SMILES): CC12CC3CC(C)(C1)CC(N)(C3)C2 [Memantine, memantine, reference compound]
- IC50 (NMDA receptors; read-out: IC50, NMDA-evoked [Ca2+]c elevation; rat cortical embryonic neurons, NMDA 10 μM, compounds 1 to 30 μM): 17 µM

Structure (SMILES): COC(=O)C1=C(C)NC(C)=C(C(=O)OC)C1c1ccccc1[N+](=O)[O-] [Nifedipine, nifedipine, reference compound]
- IC50 (VGCC; [4]): 15 µM

Structure (SMILES): O=C1CSC(c2ccc([N+](=O)[O-])cc2)c2cc(Cl)ccc2N1 (stereo not shown) [compound 14, 7-Chloro-5-(4′-nitrophenyl)-3,5-dihydro-4,1-benzothiazepin-2-(1H)-one]
- IC50 (VGCC; [4]): 29.9 µM
- IC50 (NMDA receptors; [5]): > 30 µM
- Papp at 4 h, 100 µM [1, 6]: < 4 ×10⁻⁶ cm/s
- melting point: 289 to 291 °C

Structure (SMILES): O=C1CSC(c2ccncc2)c2cc(Cl)ccc2N1 (stereo not shown) [compound 15, 7-Chloro-5-(pyridin-4-yl)-3,5-dihydro-4,1-benzothiazepin-2-(1H)-one]
- IC50 (VGCC; [4]): 20 µM
- IC50 (NMDA receptors; [5]): > 30 µM
- melting point: 224 to 226 °C

Structure (SMILES): O=C1CSC(c2cccnc2)c2cc(Cl)ccc2N1 (stereo not shown) [compound 16, 7-Chloro-5-(pyridin-3-yl)-3,5-dihydro-4,1-benzothiazepin-2-(1H)-one]
- IC50 (VGCC; [4]): > 30 µM
- IC50 (NMDA receptors; [5]): > 30 µM
- melting point: 224 to 226 °C

Structure (SMILES): O=C1CSC(c2ccccn2)c2cc(Cl)ccc2N1 (stereo not shown) [compound 17, 7-Chloro-5-(pyridin-2-yl)-3,5-dihydro-4,1-benzothiazepin-2-(1H)-one]
- IC50 (VGCC; [4]): 24.7 µM
- IC50 (NMDA receptors; [5]): > 30 µM
- melting point: 215 to 217 °C

Structure (SMILES): O=C1CSC(c2ccncc2Cl)c2cc(Cl)ccc2N1 (stereo not shown) [compound 18, 7-Chloro-5-(3′-chloropyridin-4-yl)-3,5-dihydro-4,1-benzothiazepin-2-(1H)-one]
- Effect on cell viability of rat cortical neurons at 30 μM (rat cortical neurons [2]): slightly reduced cell viability in a significant manner
- Decrease of K+-evoked Ca2+ signaling compared with nifedipine (VGCC): in a similar manner or even better than the reference compound nifedipine
- IC50 (VGCC; [4]): 11.5 µM
- IC50 (NMDA receptors; [5]): 28.3 µM
- Papp at 4 h, 100 µM ([1]; pH 7.4, threshold value of 40 nm/s): > 4 ×10⁻⁶ cm/s
- melting point: 226 to 229 °C

Structure (SMILES): CN(C)c1ccc2c(c1)C(c1ccccc1Cl)SCC(=O)N2 (stereo not shown) [compound 26, 5-(2′-Chlorophenyl)-7-dimethylamino-3,5-dihydro-4,1-benzothiazepin-2-(1H)-one]
- Effect on cell viability of rat cortical neurons at 30 μM (rat cortical neurons [2]): slightly reduced cell viability in a significant manner
- IC50 (VGCC; [4]): 25.4 µM
- IC50 (NMDA receptors; [5]): > 30 µM
- Protection against R/O-induced oxidative stress (in words) (SH-SY5Y cells): clear trend to protect against oxidative stress
- Papp at 4 h, 100 µM [1, 6]: < 4 ×10⁻⁶ cm/s
- melting point: 178 to 181 °C

Structure (SMILES): COc1ccccc1C1SCC(=O)Nc2ccc(N(C)C)cc21 (stereo not shown) [compound 27, 7-Dimethylamino-5-(2′-methoxyphenyl)-3,5-dihydro-4,1-benzothiazepin-2-(1H)-one]
- Effect on cell viability of rat cortical neurons at 30 μM (rat cortical neurons [2]): slightly reduced cell viability in a significant manner
- IC50 (VGCC; read-out: IC50, concentration halving the 70 mM K+-evoked Ca2+ elevation, compounds 1 to 30 μM, Fluo-4/AM): 29.3 µM
- IC50 (NMDA receptors; [5]): 18.5 µM
- Mitigation of the NMDA-elicited Ca2+ increase compared with memantine (NMDA receptors; rat cortical neurons, compounds 10 μM, memantine 10 μM): noticeable mitigation of the NMDA-elicited Ca^2+ increase, even higher than that exerted by the reference compound memantine
- Protection against R/O-induced oxidative stress (in words) (SH-SY5Y cells): clear trend to protect against oxidative stress
- melting point: 233 to 236 °C

Structure (SMILES): CN(C)c1ccc2c(c1)C(c1ccc(F)cc1)SCC(=O)N2 (stereo not shown) [compound 28, 7-Dimethylamino-5-(4′-fluorophenyl)-3,5-dihydro-4,1-benzothiazepin-2-(1H)-one]
- Effect on cell viability of rat cortical neurons at 30 μM (rat cortical neurons [2]): slightly reduced cell viability in a significant manner
- IC50 (VGCC; [4]): 19.5 µM
- IC50 (NMDA receptors; [5]): > 30 µM
- Protection against R/O-induced oxidative stress (in words) (SH-SY5Y cells): clear trend to protect against oxidative stress
- melting point: 219 to 222 °C

Structure (SMILES): O=C1CSC(c2ccc(F)cc2)c2ccccc2N1 (stereo not shown) [compound 32, 5-(4′-Fluorophenyl)-3,5-dihydro-4,1-benzothiazepin-2-(1H)-one]
- Decrease of K+-evoked Ca2+ signaling compared with nifedipine (VGCC): in a similar manner or even better than the reference compound nifedipine
- IC50 (VGCC; [4]): 9.2 µM
- IC50 (NMDA receptors; [5]): > 30 µM
- Protection against glutamate-elicited neurotoxicity (in words) (rat cortical neurons [3]): statistically significant dissipation of the glutamate-elicited neurotoxicity
- Papp at 4 h, 100 µM [1, 6]: < 4 ×10⁻⁶ cm/s
- melting point: 251 to 254 °C

Structure (SMILES): COc1ccccc1C1SCC(=O)Nc2ccccc21 (stereo not shown) [compound 33, 5-(2′-Methoxyphenyl)-3,5-dihydro-4,1-benzothiazepin-2-(1H)-one]
- Effect on cell viability of rat cortical neurons at 30 μM (rat cortical neurons [2]): slightly reduced cell viability in a significant manner
- IC50 (VGCC; [4]): > 30 µM
- IC50 (NMDA receptors; [5]): > 30 µM
- Protection against glutamate-elicited neurotoxicity (in words) (rat cortical neurons [3]): statistically significant dissipation of the glutamate-elicited neurotoxicity
- melting point: 216 to 218 °C
